From PubChem BioAssay (NCI)
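Each compound was tested at five concentrations against cells in 96-well plates for 48 hours. TGI: concentration producing complete growth inhibition.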

How the values were obtained:
Test in all cases: NCI-60 cell line screen, 48 h
SF-539 CNS = test system: SF-539 CNS
NCI/ADR-RES ovarian = test system: NCI/ADR-RES ovarian
T-47D breast = test system: T-47D breast
HCT-116 colon = test system: HCT-116 colon
NCI-H23 lung = test system: NCI-H23 lung
SN12C renal = test system: SN12C renal
OVCAR-3 ovarian = test system: OVCAR-3 ovarian
M14 melanoma = test system: M14 melanoma
MCF7 breast = test system: MCF7 breast
HOP-92 NSCLC = test system: HOP-92 NSCLC
MDA-MB-435 = test system: MDA-MB-435
DU-145 prostate = test system: DU-145 prostate
MOLT-4 leukemia = test system: MOLT-4 leukemia
ACHN renal = test system: ACHN renal
SNB-75 CNS = test system: SNB-75 CNS
SF-268 CNS = test system: SF-268 CNS
HS 578T breast = test system: HS 578T breast
UACC-257 melanoma = test system: UACC-257 melanoma
HCT-15 colon = test system: HCT-15 colon
OVCAR-4 ovarian = test system: OVCAR-4 ovarian
U251 CNS = test system: U251 CNS
UO-31 renal = test system: UO-31 renal
TK-10 renal = test system: TK-10 renal
MALME-3M melanoma = test system: MALME-3M melanoma
SW-620 colon = test system: SW-620 colon
PC-3 prostate = test system: PC-3 prostate
EKVX NSCLC = test system: EKVX NSCLC
SK-MEL-28 melanoma = test system: SK-MEL-28 melanoma
OVCAR-8 ovarian = test system: OVCAR-8 ovarian
SNB-19 CNS = test system: SNB-19 CNS
KM12 colon = test system: KM12 colon
K-562 leukemia = test system: K-562 leukemia
SK-MEL-5 melanoma = test system: SK-MEL-5 melanoma
COLO 205 colon = test system: COLO 205 colon
SK-MEL-2 melanoma = test system: SK-MEL-2 melanoma
HCC-2998 colon = test system: HCC-2998 colon
LOX IMVI melanoma = test system: LOX IMVI melanoma
MDA-MB-231 breast = test system: MDA-MB-231 breast
NCI-H460 lung = test system: NCI-H460 lung
CCRF-CEM leukemia = test system: CCRF-CEM leukemia
HOP-62 NSCLC = test system: HOP-62 NSCLC
IGROV1 ovarian = test system: IGROV1 ovarian
786-0 renal = test system: 786-0 renal
SK-OV-3 ovarian = test system: SK-OV-3 ovarian
MDA-N = test system: MDA-N
UACC-62 melanoma = test system: UACC-62 melanoma
A498 renal = test system: A498 renal
SR leukemia = test system: SR leukemia
A549 NSCLC = test system: A549 NSCLC
NCI-H226 lung = test system: NCI-H226 lung
NCI-H522 lung = test system: NCI-H522 lung
HT29 colon = test system: HT29 colon
RPMI-8226 leukemia = test system: RPMI-8226 leukemia
SF-295 CNS = test system: SF-295 CNS
OVCAR-5 ovarian = test system: OVCAR-5 ovarian
CAKI-1 renal = test system: CAKI-1 renal

CCC1=C(c2ccc(OC)cc2)CC[C@@]2(CCNC2=O)[C@@H]1C
TGI (SF-539 CNS): > 100 µM | TGI (NCI/ADR-RES ovarian): > 100 µM | TGI (T-47D breast): > 100 µM | TGI (HCT-116 colon): > 100 µM | TGI (NCI-H23 lung): > 100 µM | TGI (SN12C renal): > 100 µM | TGI (OVCAR-3 ovarian): > 100 µM | TGI (M14 melanoma): > 100 µM | TGI (MCF7 breast): > 100 µM | TGI (HOP-92 NSCLC): > 100 µM | TGI (MDA-MB-435): > 100 µM | TGI (DU-145 prostate): > 100 µM | TGI (MOLT-4 leukemia): > 90.3 µM | TGI (ACHN renal): > 100 µM | TGI (SNB-75 CNS): > 100 µM | TGI (SF-268 CNS): > 100 µM | TGI (HS 578T breast): > 89.5 µM | TGI (UACC-257 melanoma): > 100 µM | TGI (HCT-15 colon): > 100 µM | TGI (OVCAR-4 ovarian): > 100 µM | TGI (U251 CNS): > 100 µM | TGI (UO-31 renal): > 100 µM | TGI (TK-10 renal): > 100 µM | TGI (MALME-3M melanoma): > 100 µM | TGI (SW-620 colon): > 100 µM | TGI (PC-3 prostate): > 100 µM | TGI (EKVX NSCLC): > 100 µM | TGI (SK-MEL-28 melanoma): > 100 µM | TGI (OVCAR-8 ovarian): > 100 µM | TGI (SNB-19 CNS): > 100 µM | TGI (KM12 colon): > 100 µM | TGI (K-562 leukemia): > 95.9 µM | TGI (SK-MEL-5 melanoma): 58.7 µM | TGI (COLO 205 colon): > 100 µM | TGI (SK-MEL-2 melanoma): > 100 µM | TGI (HCC-2998 colon): > 100 µM | TGI (LOX IMVI melanoma): > 100 µM | TGI (MDA-MB-231 breast): > 100 µM | TGI (NCI-H460 lung): > 100 µM | TGI (CCRF-CEM leukemia): > 100 µM | TGI (HOP-62 NSCLC): > 100 µM | TGI (IGROV1 ovarian): > 100 µM | TGI (786-0 renal): > 100 µM | TGI (SK-OV-3 ovarian): > 100 µM | TGI (MDA-N): > 100 µM | TGI (UACC-62 melanoma): > 100 µM | TGI (A498 renal): > 100 µM | TGI (SR leukemia): > 100 µM | TGI (A549 NSCLC): > 100 µM | TGI (NCI-H226 lung): > 100 µM | TGI (NCI-H522 lung): > 100 µM | TGI (HT29 colon): > 100 µM | TGI (RPMI-8226 leukemia): > 100 µM | TGI (SF-295 CNS): > 100 µM | TGI (OVCAR-5 ovarian): > 100 µM | TGI (CAKI-1 renal): > 100 µM
